# Results reported in ChEMBL document CHEMBL5537201, “Discovery of Unique Bis-Substituted Aromatic Amide Derivatives as Novel Highly Potent Antibiotics for Combating Methicillin-Resistant Staphylococcus aureus (MRSA)” (J Med Chem, 2024).
# The source made the active and inactive calls. The rule behind the calls is not given here.
# Tests used:
# Staphylococcus aureus [1] = experiment: Bactericidal activity against norfloxacin-resistant Staphylococcus aureus ATCC6538 at 5 ug/ml measured upto 150 mins; assay type: functional, organism-based; details: dose 5.0 µg/ml
# Staphylococcus aureus [2] = experiment: Antimicrobial activity against methicillin resistant Staphylococcus aureus clinical isolate MRS273 assessed as reduction in bacterial growth incubated for 24 hrs by two-fold broth dilution method; assay type: functional
# Cell membrane [3] = experiment: Induction of inner membrane permeabilization in Staphylococcus aureus ATCC6538 assessed as increase in red fluorescence at 5 ug/ml by PI staining based analysis; assay type: cell membranes; details: dose 5.0 µg/ml
# Staphylococcus aureus [4] = experiment: Upregulation of repair gene expression in Staphylococcus aureus ATCC6538 at 5 ug/ml incubated for 2 hrs by RNA sequencing analysis; assay type: functional, organism-based; details: dose 5.0 µg/ml
# [5] = Toxicity in BALB/c mouse assessed as as effect on heart at 25 to 50 mg/kg, iv by H and E staining based analysis; assay type: organism-based; details: in vivo, dose 25-50 mg/kg
# Staphylococcus aureus [6] = experiment: Bactericidal activity against methicillin-resistant Staphylococcus aureus clinical isolate MRS97 at 5 ug/ml measured upto 150 mins; assay type: functional, organism-based; details: dose 5.0 µg/ml
# [7] = Toxicity in BALB/c mouse assessed as as effect on lung at 25 to 50 mg/kg, iv by H and E staining based analysis; assay type: organism-based; details: in vivo, dose 25-50 mg/kg
# Cell membrane [8] = experiment: Induction of Outer membrane disruption in Staphylococcus aureus ATCC6538 assessed as […] in fluorescence intensity measured upto 30 mins by NPN dye based fluorescence analysis; assay type: cell membranes
# [9] = Binding affinity to Staphylococcus aureus ATCC6538 Phosphatidylethanolamine assessed as dissociation constant by ITC analysis
# Staphylococcus aureus [10] = experiment: Antimicrobial activity against methicillin resistant Staphylococcus aureus clinical isolate MRS23 assessed as reduction in bacterial growth incubated for 24 hrs by two-fold broth dilution method; assay type: functional
# Peptidoglycan = experiment: Binding affinity to Staphylococcus aureus ATCC6538 peptidoglycan assessed as change in MIC at upto 256 ug/ml measured after 22 hrs; details: dose <= 256.0 µg/ml
# Staphylococcus aureus [11] = experiment: Antimicrobial activity against methicillin resistant Staphylococcus aureus clinical isolate MRS207 assessed as reduction in bacterial growth incubated for 24 hrs by two-fold broth dilution method; assay type: functional
# Staphylococcus aureus [12] = experiment: Antimicrobial activity against methicillin resistant Staphylococcus aureus clinical isolate MRS153 assessed as increase in ROS levels measured upto 90 mins by H2DCFDA probe based flow cytometry; assay type: functional, organism-based
# Staphylococcus aureus [13] = experiment: Induction of membrane morphological changes in Staphylococcus aureus ATCC6538 assessed as formation of cell pit at 5 times of MIC measured after 0.5 hrs by FE-SEM analysis; assay type: functional, organism-based
# Staphylococcus aureus [14] = experiment: Bactericidal activity against methicillin-resistant Staphylococcus aureus clinical isolate MRS153 at 5 ug/ml measured upto 150 mins; assay type: functional, organism-based; details: dose 5.0 µg/ml
# Cell membrane [15] = experiment: Induction of inner membrane permeabilization in Staphylococcus aureus ATCC6538 assessed as increase in blue fluorescence at 5 ug/ml by DAPI staining based analysis; assay type: cell membranes; details: dose 5.0 µg/ml
# Cell membrane [16] = experiment: Disruption of cell membrane integrity in Staphylococcus aureus ATCC6538 assessed as increase in fluorescence intensity at 1 to 26 times MIC measured upto 36 mins ethidium bromide uptake assay; assay type: cell membranes
# Staphylococcus aureus [17] = experiment: In vivo antibacterial activity against methicillin-resistant Staphylococcus aureus clinical isolate MRS153 infected in C57BL/6N mouse model assessed as reduction in bacterial load in lung at 3.125 to 12.5 mg/kg, iv measured after 24 hrs; assay type: functional, organism-based; details: dose 3.125-12.5 mg/kg
# [18] = Toxicity in BALB/c mouse assessed as as change in BUN level at 25 to 50 mg/kg, iv; assay type: organism-based; details: in vivo, dose 25-50 mg/kg
# [19] = Toxicity in BALB/c mouse assessed as effect on body weight at 50 mg/kg, iv measured upto 8 days; assay type: organism-based; details: in vivo, 192 h, time < 8 day
# [20] = Toxicity in BALB/c mouse assessed as mouse death at 50 mg/kg, iv measured upto 8 days; assay type: organism-based; details: in vivo, 192 h, time < 8 day
# [21] = Toxicity in BALB/c mouse assessed as as effect on kidney at 25 to 50 mg/kg, iv by H and E staining based analysis; assay type: organism-based; details: in vivo, dose 25-50 mg/kg
# Staphylococcus aureus [22] = experiment: Antimicrobial activity against Staphylococcus aureus ATCC6538 assessed as increase in ROS levels measured upto 180 mins in presence of chloramphenicol by H2DCFDA probe based flow cytometry; assay type: functional, organism-based
# Staphylococcus aureus [23] = experiment: Antimicrobial activity against methicillin resistant Staphylococcus aureus clinical isolate MRS153 assessed as reduction in bacterial growth incubated for 24 hrs by two-fold broth dilution method; assay type: functional
# Staphylococcus aureus [24] = experiment: In vivo antibacterial activity against methicillin-resistant Staphylococcus aureus clinical isolate MRS153 infected in C57BL/6N mouse model assessed as reduction in bacterial load in liver at 3.125 to 12.5 mg/kg, iv measured after 24 hrs; assay type: functional, organism-based; details: dose 3.125-12.5 mg/kg
# HeLa = experiment: Cytotoxicity against human HeLa cells assessed as reduction in cell viability measured after 24 hrs by CCK-8 method; assay type: functional, cell-based
# Staphylococcus aureus [25] = experiment: Antimicrobial activity against methicillin resistant Staphylococcus aureus clinical isolate MRS153 assessed as increase in ROS levels measured upto 180 mins in presence of 2,2'-bipyridyl and thiourea by H2DCFDA probe based flow cytometry; assay type: functional, organism-based
# Staphylococcus aureus [26] = experiment: Antimicrobial activity against methicillin resistant Staphylococcus aureus clinical isolate MRS153 assessed as increase in ROS levels measured upto 180 mins in presence of chloramphenicol by H2DCFDA probe based flow cytometry; assay type: functional, organism-based
# Staphylococcus hominis = experiment: Bactericidal activity against multidrug-resistant Staphylococcus hominis at 5 ug/ml measured upto 150 mins; assay type: functional, organism-based; details: dose 5.0 µg/ml
# Staphylococcus aureus [27] = experiment: Antibiofilm activity against Staphylococcus aureus clinical isolate MRS153 assessed as reduction in biofilm formation at 1 to 32 ug/ml incubated for 20 to 22 hrs by crystal violet staining based analysis; assay type: functional, organism-based; details: dose 1-32 µg/ml, time 20-22 hrs
# Staphylococcus aureus [28] = experiment: Binding affinity to Staphylococcus aureus ATCC6538 Phosphatidylglycerol assessed as change in MIC at upto 256 ug/ml measured after 22 hrs; details: dose <= 256.0 µg/ml
# Staphylococcus aureus [29] = experiment: Antimicrobial activity against methicillin resistant Staphylococcus aureus clinical isolate MRS153 assessed as membrane fluidity measured after 35 mins; assay type: functional, organism-based
# Staphylococcus aureus [30] = experiment: In vivo antibacterial activity against methicillin-resistant Staphylococcus aureus clinical isolate MRS153 infected in C57BL/6N mouse model assessed as reduction in bacterial load in spleen at 3.125 to 12.5 mg/kg, iv measured after 24 hrs; assay type: functional, organism-based; details: dose 3.125-12.5 mg/kg
# Staphylococcus aureus [31] = experiment: Antimicrobial activity against methicillin resistant Staphylococcus aureus clinical isolate MRS108 assessed as reduction in bacterial growth incubated for 24 hrs by two-fold broth dilution method; assay type: functional
# Staphylococcus aureus [32] = experiment: Upregulation of redox gene expression in Staphylococcus aureus ATCC6538 at 5 ug/ml incubated for 2 hrs by RNA sequencing analysis; assay type: functional, organism-based; details: dose 5.0 µg/ml
# Streptomyces albus = experiment: Antimicrobial activity against Streptomyces albus SHBC D11158 assessed as reduction in bacterial growth incubated for 24 hrs by two-fold broth dilution method; assay type: functional
# Cell membrane [33] = experiment: Induction of inner membrane permeabilization in methicillin resistant Staphylococcus aureus clinical isolate MRS153 assessed as increase in blue fluorescence at 5 ug/ml by DAPI staining based analysis; assay type: cell membranes; details: dose 5.0 µg/ml
# Staphylococcus aureus [34] = experiment: Induction of membrane morphological changes in Staphylococcus aureus ATCC6538 assessed as cell rupture at 5 times of MIC measured after 0.5 hrs by FE-SEM analysis; assay type: functional, organism-based
structure (smiles),measurement,setting,value
O=C(CCC(F)(F)F)N(Cc1cc2ccccc2s1)c1cc(-c2noc(C(F)(F)F)n2)ccc1O,Activity,Staphylococcus aureus [1],Active
same,MIC,Staphylococcus aureus [2],1 µg/mL
same,Activity,Cell membrane [3],Active
same,Activity,Staphylococcus aureus [4],Active
same,Activity,[5],Non-Toxic
same,Activity,Staphylococcus aureus [6],Active
same,Activity,[7],Non-Toxic
same,Activity,Cell membrane [8],Dose-Dependent Effect
same,Kd,[9],183 µM
same,MIC,Staphylococcus aureus [10],2 µg/mL
same,Activity,Peptidoglycan,inactive
same,MIC,Staphylococcus aureus [11],1 µg/mL
same,Activity,Staphylococcus aureus [12],Active
same,Activity,Staphylococcus aureus [13],Active
same,Activity,Staphylococcus aureus [14],Active
same,Activity,Cell membrane [15],Active
same,Activity,Cell membrane [16],Active
same,Activity,Staphylococcus aureus [17],Active
same,Activity,[18],Non-Toxic
same,Activity,[19],Non-Toxic
same,Activity,[20],Non-Toxic
same,Activity,[21],Non-Toxic
same,Activity,Staphylococcus aureus [22],inactive
same,MIC,Staphylococcus aureus [23],1 µg/mL
same,Activity,Staphylococcus aureus [24],Active
same,IC50,HeLa,> 25 µg/mL
same,Activity,Staphylococcus aureus [25],inactive
same,Activity,Staphylococcus aureus [26],inactive
same,Activity,Staphylococcus hominis,Active
same,Activity,Staphylococcus aureus [27],Active
same,Activity,Staphylococcus aureus [28],inactive
same,Activity,Staphylococcus aureus [29],Active
same,Activity,Staphylococcus aureus [30],Active
same,MIC,Staphylococcus aureus [31],1 µg/mL
same,Activity,Staphylococcus aureus [32],Active
same,MIC,Streptomyces albus,< 0.5 µg/mL
same,Activity,Cell membrane [33],Active
same,Activity,Staphylococcus aureus [34],Active
